Assay results taken from patent publication US20240368133A1, “Compounds for the Treatment of Pain, in Particular, Neuropathic Pain, and/or Other Diseases or Disorders that are Associated with AT2R and/or AT2R Mediated Signaling” (Confo Therapeutics N.V., priority 2021, published 2024).
In brackets after ≈: the same amount, converted by molar mass. Like-named read-outs stand apart in the source and are kept apart here.

Experiments:
Kinetic solubility = type: physicochemical; details: kinetic from dmso stock
Experimental: Starting from a 20 mM stock solution of test compound in 100% DMSO, dilutions were prepared to a theoretical concentration of 400 μM in duplicates in phosphate-buffered saline pH 7.4 (PBS) (138 mM NaCl, 2.7 mM KCl, 10 mM K-phosphate) and 100 mM citrate buffer pH 3.0 with 2% final DMSO.
The experimental compound dilutions in PBS and citrate buffer were further allowed to equilibrate at 25° C. on a thermostatic orbital shaker for two hours and then centrifuged at 14000 rpm, 5 min and filtered through HTS filter plates using a vacuum manifold. The filtrates of test compounds were diluted 2-fold with acetonitrile with 2% DMSO before measuring. In parallel, compound dilutions in 50% acetonitrile/buffer were prepared to the theoretical concentrations of 0 μM (blank), 100 μM, 200 μM and 400 μM with 2% final DMSO to generate calibration curves.
Ondansetron (Sigma Aldrich USA, cat #03639) was used as a reference to control proper assay performance. 200 μl of each sample were transferred to a 96-well plate and solubility was measured in a 200-550 nm range (in steps of 5 nm). The measurements were performed using a Spectra Max Plus reader in UV-Vis mode. Acquisition and analysis of the data were performed using SoftMax Pro v.5.4 (Molecular Devices) and Excel 2010 data analysis software. Proper absorbance wavelengths for calculations were selected for each compound manually based on absorbance maximums (absolute absorbance unit values for the minimum and maximum concentration points within 0-3 OD range). Each of the final datasets was additionally visually evaluated by the operator and goodness of fit (R2) is calculated for each calibration curve.

[1] = Liver microsomal stability, rat; type: in vitro ADME; details: male, pH 7.4, liver microsomes
Experimental: Mouse hepatic microsomes were isolated from pooled (50), perfused livers of male Balb/c mice. Rat hepatic microsomes were isolated from pooled (15), perfused livers of male Wistar rats. Isolation was performed according to the standard protocol (Hill, J. R. in Current Protocols in Pharmacology 7.8.1-7.8.11, Wiley Interscience, 2003). The batches of microsomes were tested for quality control using Imipramine, Propranolol and Verapamil as reference compounds.
(§1) Microsomal incubations were carried out in 96-well plates in 5 aliquots of 40 μL each (one for each time point). Liver microsomal incubation medium contained PBS (100 mM, pH 7.4), MgCl2 (3.3 mM), NADPH (3 mM), glucose-6-phosphate (5.3 mM), glucose-6-phosphate dehydrogenase (0.67 units/ml) with 0.42 mg of liver microsomal protein per ml. Control incubations were performed replacing the NADPH-cofactor system with PBS. Test compound (2 μM, final solvent concentration 1.6%) was incubated with microsomes at 37° C., shaking at 100 rpm. Incubations were performed in duplicates. Five time points over 40 minutes have been analyzed. The reactions were stopped by adding 12 volumes of 90% acetonitrile-water to incubation aliquots, followed by protein sedimentation by centrifuging at 5500 rpm for 3 minutes. […]. Supernatants were analyzed using the HPLC system coupled with tandem mass spectrometer (API3000 PE Sciex). Acquisition and analysis of the data were performed using Analyst 1.5.2 software (PE Sciex). The elimination constant (kel), half-life (t½) and intrinsic clearance (Clint) were determined in plot of […] versus time, using linear regression analysis:
Mouse hepatic microsomes were isolated from pooled, perfused livers of male CD1 mice. Rat hepatic microsomes were isolated from pooled, perfused livers of male Sprague Dawley rats. Dog hepatic microsomes were isolated from pooled, perfused livers of male Beagle dogs. The batches of microsomes were tested for quality control using Testosterone, Propranolol and Caffeine as reference compounds.
(§2) A 10 mM stock solution of compound in DMSO is diluted three-fold in DMSO. This pre-diluted compound solution is then further diluted to 2 μM in a 50 mM phosphate buffer (PBS, pH 7.4) and pre-warmed at 37° C. This compound dilution is mixed F2 with microsomal/cofactor mix at 37° C. under shaking at 300 rpm. Final reaction conditions are: 100 μL incubation volume, 1 μM of test compound (in duplicate), <0.1% DMSO, 0.5 mg/mL microsomes, 0.6 U/mL Glucose-6-phosphate-dehydrogenase (G6PDH, Roche, 10127671001), 3.3 mM MgCl2 (Sigma, M2670), 3.3 mM glucose-6-phosphate (Sigma, G-7879) and 1.3 mM NADP+ (Sigma, N-0505).
(§3) After 60 min of incubation at 300 rpm and 37° C., the reaction was stopped with 3 volumes of STOP solution (acetonitrile/MeOH 2/1 with diclofenac as internal standard). For the time point zero, 3 volumes of STOP solution were added to the compound dilution before the microsome mix was added. Six time points over 60 minutes have been analyzed. The samples of all time points were centrifuged, filtered and the supernatant analyzed by LCMS/MS (systems API4000).
(§4) The instrument responses (peak areas/IS peak area) were referenced to the zero time-point samples (considered as 100%) in order to determine the percentage of compound remaining.
(§5) Testosterone (1 μM) and Propranolol and Caffeine (1 μM) were used as reference compounds, being unstable and stable compounds respectively. If the microsomal stability values for these controls are not in the range determined by the historical data, the assay is not validated. The solubility of the compound in the final test concentration in 50 mM buffer pH 7.4 is checked by microscope to indicate whether precipitation is observed or not. If a precipitate is observed, no data of microsomal stability is generated.

[2] = Liver microsomal stability, human; type: in vitro ADME; details: pH 7.4, liver microsomes
Experimental: as §1, §2, §3, §4, §5

solubility at 2 h (Kinetic solubility; aqueous buffer, kinetic solubility, phosphate-buffered saline pH 7.4, 2% DMSO, 25° C., two hours, read-out: PBS solubility, pH 7.4): 54 µM (≈ 26.9 µg/mL)
solubility at 2 h (Kinetic solubility; citrate buffer, 25 °C, pH 3, aqueous buffer, read-out: Citrate buffer solubility, pH 3.0): ≥ 400 µM
microsomal CLint [1]: 23 µL/min/mg
microsomal CLint [2]: 259 µL/min/mg
Structure (SMILES): CCCCNC(=O)NS(=O)(=O)c1ccc(C)cc1N1CCN(Cc2nc3ccccc3n2C)CC1 [Compound A-12, 1-butyl-3-[4-methyl-2-[4-[(1-methylbenzimidazol-2-yl)methyl]piperazin-1-yl]phenyl]sulfonyl-urea]
